Data from patent publication EP4745137A1 (Gluetacs Therapeutics (Shanghai) Co., Ltd., priority 2023, dated 2025).

Columns and labels:
Format in all cases: cell-based
Conditions in all cases: 24 hours of compound treatment, 50 nM and 500 nM tested (concentration behind the class not stated)
CK1α = molecular target: T1, CK1α (Homo sapiens, UniProt P48729+Q96SW2); test: Western-blot assay of substrate protein degradation in hPBMCs, CK1α
T1 construct: endogenous in cells; host or cells: hPBMCs (Milecell Biotechnologies)

IKZF2 = molecular target: T2, IKZF2 (Homo sapiens, UniProt Q96SW2+Q9UKS7); test: Western-blot assay of substrate protein degradation in hPBMCs, IKZF2
T2 construct: endogenous in cells; host or cells: hPBMCs (Milecell Biotechnologies)

IKZF3 = molecular target: T3, IKZF3 (Homo sapiens, UniProt Q96SW2+Q9UKT9); test: Western-blot assay of substrate protein degradation in hPBMCs, IKZF3
T3 construct: endogenous in cells; host or cells: hPBMCs (Milecell Biotechnologies)

GSPT1 = molecular target: T4, GSPT1 (Homo sapiens, UniProt P15170+Q96SW2); test: Western-blot assay of substrate protein degradation in hPBMCs, GSPT1
T4 construct: endogenous in cells; host or cells: hPBMCs (Milecell Biotechnologies)

IKZF1 = molecular target: T5, IKZF1 (Homo sapiens, UniProt Q13422+Q96SW2); test: Western-blot assay of substrate protein degradation in hPBMCs, IKZF1
T5 construct: endogenous in cells; host or cells: hPBMCs (Milecell Biotechnologies)

WEE1 = molecular target: T6, WEE1 (Homo sapiens, UniProt P30291+Q96SW2); test: Western-blot assay of substrate protein degradation in hPBMCs, WEE1
T6 construct: endogenous in cells; host or cells: hPBMCs (Milecell Biotechnologies)
T6 sequence (P30291 whole entry): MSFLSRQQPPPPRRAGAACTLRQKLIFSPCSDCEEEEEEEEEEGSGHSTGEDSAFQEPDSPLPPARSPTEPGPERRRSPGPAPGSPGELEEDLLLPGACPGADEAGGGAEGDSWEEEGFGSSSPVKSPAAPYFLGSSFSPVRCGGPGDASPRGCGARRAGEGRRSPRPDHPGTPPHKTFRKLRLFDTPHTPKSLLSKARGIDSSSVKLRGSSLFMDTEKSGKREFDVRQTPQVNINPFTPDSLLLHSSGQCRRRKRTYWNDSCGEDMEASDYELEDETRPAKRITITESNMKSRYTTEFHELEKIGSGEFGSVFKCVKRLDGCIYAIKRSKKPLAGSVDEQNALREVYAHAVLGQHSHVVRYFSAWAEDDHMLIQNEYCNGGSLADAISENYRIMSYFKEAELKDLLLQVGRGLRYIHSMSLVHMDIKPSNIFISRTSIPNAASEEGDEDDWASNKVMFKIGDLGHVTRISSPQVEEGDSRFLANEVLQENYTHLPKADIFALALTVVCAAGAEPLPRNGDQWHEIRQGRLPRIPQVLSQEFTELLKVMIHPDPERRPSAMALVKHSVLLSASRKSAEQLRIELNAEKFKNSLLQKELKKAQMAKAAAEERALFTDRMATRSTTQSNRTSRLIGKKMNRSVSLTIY
T6 sequence (Q96SW2 whole entry): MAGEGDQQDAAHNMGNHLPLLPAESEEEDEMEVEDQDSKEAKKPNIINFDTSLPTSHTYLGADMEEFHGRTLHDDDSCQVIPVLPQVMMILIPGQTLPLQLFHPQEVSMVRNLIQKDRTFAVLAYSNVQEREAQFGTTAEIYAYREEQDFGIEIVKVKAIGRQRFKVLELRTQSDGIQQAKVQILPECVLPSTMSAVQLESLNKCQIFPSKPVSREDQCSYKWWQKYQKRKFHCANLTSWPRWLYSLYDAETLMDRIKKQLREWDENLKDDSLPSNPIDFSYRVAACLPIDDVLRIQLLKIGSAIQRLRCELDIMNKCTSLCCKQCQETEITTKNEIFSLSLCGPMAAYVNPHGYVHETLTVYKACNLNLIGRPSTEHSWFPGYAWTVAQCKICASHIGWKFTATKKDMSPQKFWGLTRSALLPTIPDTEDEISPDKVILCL
T6 sequence (Q16531 whole entry partner): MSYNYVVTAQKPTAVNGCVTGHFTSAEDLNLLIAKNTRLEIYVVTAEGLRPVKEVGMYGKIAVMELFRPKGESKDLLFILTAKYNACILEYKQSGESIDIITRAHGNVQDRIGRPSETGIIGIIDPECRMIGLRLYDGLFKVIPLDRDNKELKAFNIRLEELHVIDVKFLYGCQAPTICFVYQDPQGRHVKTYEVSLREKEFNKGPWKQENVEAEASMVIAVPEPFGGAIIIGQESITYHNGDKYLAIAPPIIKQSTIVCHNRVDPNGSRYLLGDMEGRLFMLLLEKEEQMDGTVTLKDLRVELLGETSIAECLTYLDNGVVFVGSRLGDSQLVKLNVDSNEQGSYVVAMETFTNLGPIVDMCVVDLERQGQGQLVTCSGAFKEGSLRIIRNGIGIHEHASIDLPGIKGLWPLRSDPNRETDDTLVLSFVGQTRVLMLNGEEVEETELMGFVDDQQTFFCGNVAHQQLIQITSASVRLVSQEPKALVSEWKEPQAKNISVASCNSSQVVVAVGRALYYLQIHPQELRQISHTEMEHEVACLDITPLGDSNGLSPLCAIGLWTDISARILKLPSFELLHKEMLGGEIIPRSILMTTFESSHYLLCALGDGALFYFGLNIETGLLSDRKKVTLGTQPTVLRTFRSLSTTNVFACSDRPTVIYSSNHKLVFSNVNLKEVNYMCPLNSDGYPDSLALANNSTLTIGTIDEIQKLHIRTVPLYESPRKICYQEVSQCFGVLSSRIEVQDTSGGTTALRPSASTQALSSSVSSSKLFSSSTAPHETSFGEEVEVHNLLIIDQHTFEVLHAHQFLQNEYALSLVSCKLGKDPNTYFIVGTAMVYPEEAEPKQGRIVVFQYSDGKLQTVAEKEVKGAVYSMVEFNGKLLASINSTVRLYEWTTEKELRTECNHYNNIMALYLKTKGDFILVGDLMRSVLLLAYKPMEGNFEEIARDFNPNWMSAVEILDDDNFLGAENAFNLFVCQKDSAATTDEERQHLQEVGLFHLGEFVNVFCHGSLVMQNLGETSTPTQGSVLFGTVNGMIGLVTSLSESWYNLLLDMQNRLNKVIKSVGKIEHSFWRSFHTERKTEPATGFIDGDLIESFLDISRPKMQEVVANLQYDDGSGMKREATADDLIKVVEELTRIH

T5 sequence (Q13422 whole entry): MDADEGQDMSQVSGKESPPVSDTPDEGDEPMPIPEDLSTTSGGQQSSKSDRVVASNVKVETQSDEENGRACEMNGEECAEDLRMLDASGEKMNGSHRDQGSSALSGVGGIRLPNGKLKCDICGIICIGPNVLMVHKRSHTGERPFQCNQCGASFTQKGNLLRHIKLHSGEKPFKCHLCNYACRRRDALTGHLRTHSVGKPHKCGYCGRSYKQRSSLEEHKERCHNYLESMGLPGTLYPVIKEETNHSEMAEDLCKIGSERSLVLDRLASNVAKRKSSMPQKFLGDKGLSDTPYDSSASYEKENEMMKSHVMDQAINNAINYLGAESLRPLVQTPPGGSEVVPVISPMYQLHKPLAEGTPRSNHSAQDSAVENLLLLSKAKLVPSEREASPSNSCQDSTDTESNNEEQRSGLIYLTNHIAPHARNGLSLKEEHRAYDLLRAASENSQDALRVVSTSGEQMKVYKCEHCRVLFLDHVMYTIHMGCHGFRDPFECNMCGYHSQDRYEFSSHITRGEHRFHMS
T5 sequence (Q96SW2 whole entry): as the sequence (Q96SW2 whole entry) above
T5 sequence (Q16531 whole entry partner): as the sequence (Q16531 whole entry partner) above
T4 sequence (P15170 whole entry): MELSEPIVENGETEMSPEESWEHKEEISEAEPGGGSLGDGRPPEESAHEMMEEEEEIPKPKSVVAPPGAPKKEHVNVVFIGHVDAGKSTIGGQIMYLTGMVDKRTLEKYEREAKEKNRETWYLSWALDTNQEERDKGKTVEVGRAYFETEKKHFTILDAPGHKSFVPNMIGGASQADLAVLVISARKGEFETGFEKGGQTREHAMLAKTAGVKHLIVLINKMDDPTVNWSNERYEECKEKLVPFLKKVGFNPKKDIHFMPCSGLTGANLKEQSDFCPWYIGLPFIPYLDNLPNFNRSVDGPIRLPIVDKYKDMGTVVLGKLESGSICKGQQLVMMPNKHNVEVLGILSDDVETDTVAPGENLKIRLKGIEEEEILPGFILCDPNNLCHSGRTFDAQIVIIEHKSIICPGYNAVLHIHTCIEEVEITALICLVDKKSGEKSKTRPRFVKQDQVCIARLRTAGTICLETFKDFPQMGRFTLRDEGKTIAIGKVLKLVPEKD
T4 sequence (Q96SW2 whole entry): as the sequence (Q96SW2 whole entry) above
T4 sequence (Q16531 whole entry partner): as the sequence (Q16531 whole entry partner) above
T1 sequence (P48729 whole entry): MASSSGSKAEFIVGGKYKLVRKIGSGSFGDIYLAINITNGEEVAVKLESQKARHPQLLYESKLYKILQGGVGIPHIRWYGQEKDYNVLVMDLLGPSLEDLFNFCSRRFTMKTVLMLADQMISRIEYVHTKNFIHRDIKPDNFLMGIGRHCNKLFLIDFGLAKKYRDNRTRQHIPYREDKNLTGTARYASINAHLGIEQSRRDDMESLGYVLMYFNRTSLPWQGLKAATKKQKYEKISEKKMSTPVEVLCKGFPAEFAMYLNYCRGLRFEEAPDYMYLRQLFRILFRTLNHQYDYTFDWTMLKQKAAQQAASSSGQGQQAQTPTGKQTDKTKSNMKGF
T1 sequence (Q96SW2 whole entry): as the sequence (Q96SW2 whole entry) above
T1 sequence (Q16531 whole entry partner): as the sequence (Q16531 whole entry partner) above
T2 sequence (Q9UKS7 whole entry): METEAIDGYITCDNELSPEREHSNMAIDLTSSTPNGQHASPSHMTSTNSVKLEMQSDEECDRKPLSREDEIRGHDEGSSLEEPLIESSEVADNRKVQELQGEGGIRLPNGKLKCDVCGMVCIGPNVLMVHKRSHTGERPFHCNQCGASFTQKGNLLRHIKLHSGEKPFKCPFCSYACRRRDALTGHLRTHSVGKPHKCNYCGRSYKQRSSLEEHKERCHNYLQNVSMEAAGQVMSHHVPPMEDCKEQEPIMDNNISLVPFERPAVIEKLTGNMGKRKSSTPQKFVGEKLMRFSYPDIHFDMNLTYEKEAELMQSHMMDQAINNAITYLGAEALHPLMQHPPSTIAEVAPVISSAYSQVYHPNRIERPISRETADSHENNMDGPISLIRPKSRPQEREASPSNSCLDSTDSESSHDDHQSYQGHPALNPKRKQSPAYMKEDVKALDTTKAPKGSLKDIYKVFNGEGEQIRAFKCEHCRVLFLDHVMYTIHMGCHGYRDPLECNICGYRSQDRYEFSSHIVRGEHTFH
T2 sequence (Q96SW2 whole entry): as the sequence (Q96SW2 whole entry) above
T2 sequence (Q16531 whole entry partner): as the sequence (Q16531 whole entry partner) above

Structure (SMILES): O=C1CCC(N2C(=O)c3ccc(CN4CCC(c5ncnc6sccc56)CC4)cc3C2=O)C(=O)N1 (stereo not drawn) [GT-06591, 2-(2,6-dioxopiperidin-3-yl)-5-((4-(thieno[2,3-d]pyrimidin-4-yl)piperidin-1-yl)methyl)isoindoline-1,3-dione]
- CK1a substrate protein remaining % (CK1α): B (80%< substrate protein remaining %≤ 100%)
- IKZF2 substrate protein remaining % (IKZF2): B (80%< substrate protein remaining %≤ 100%)
- IKZF3 substrate protein remaining % (IKZF3): B (80%< substrate protein remaining %≤ 100%)
- GSPT1 substrate protein remaining % (GSPT1): A (0% ≤ substrate protein remaining % ≤ 80%)
- IKZF 1 substrate protein remaining % (IKZF1): B (80%< substrate protein remaining %≤ 100%)
- Weel substrate protein remaining % (WEE1): A (0% ≤ substrate protein remaining % ≤ 80%)

Structure (SMILES): Cc1cc2c(C3CCN(Cc4ccc5c(c4)C(=O)N(C4CCC(=O)NC4=O)C5=O)CC3)ncnc2s1 (stereo not drawn) [GT-06592, 2-(2,6-dioxopiperidin-3-yl)-5-((4-(6-methylthieno[2,3-d]pyrimidin-4-yl)piperidin-1-yl)methyl)isoindoline-1,3-dione]
- CK1a substrate protein remaining % (CK1α): B (80%< substrate protein remaining %≤ 100%)
- IKZF2 substrate protein remaining % (IKZF2): A (0% ≤ substrate protein remaining % ≤ 80%)
- IKZF3 substrate protein remaining % (IKZF3): A (0% ≤ substrate protein remaining % ≤ 80%)
- GSPT1 substrate protein remaining % (GSPT1): A (0% ≤ substrate protein remaining % ≤ 80%)
- IKZF 1 substrate protein remaining % (IKZF1): A (0% ≤ substrate protein remaining % ≤ 80%)
- Weel substrate protein remaining % (WEE1): A (0% ≤ substrate protein remaining % ≤ 80%)

Structure (SMILES): O=C1CCC(N2C(=O)c3ccc(CN4CCC(c5ncnc6sc(-c7ccccc7)cc56)CC4)cc3C2=O)C(=O)N1 (stereo not drawn) [GT-06594, 2-(2,6-dioxopiperidin-3-yl)-5-((4-(6-phenylthieno[2,3-d]pyrimidin-4-yl)piperidin-1-yl)methyl)isoindoline-1,3-dione]
- CK1a substrate protein remaining % (CK1α): B (80%< substrate protein remaining %≤ 100%)
- IKZF2 substrate protein remaining % (IKZF2): A (0% ≤ substrate protein remaining % ≤ 80%)
- IKZF3 substrate protein remaining % (IKZF3): A (0% ≤ substrate protein remaining % ≤ 80%)
- GSPT1 substrate protein remaining % (GSPT1): A (0% ≤ substrate protein remaining % ≤ 80%)
- IKZF 1 substrate protein remaining % (IKZF1): A (0% ≤ substrate protein remaining % ≤ 80%)
- Weel substrate protein remaining % (WEE1): A (0% ≤ substrate protein remaining % ≤ 80%)

Structure (SMILES): O=C1CCC(N2C(=O)c3ccc(CN4CCN(c5c(Cl)cncc5Br)CC4)cc3C2=O)C(=O)N1 (stereo not drawn) [GT-06599, 5-((4-(3-bromo-5-chloropyridin-4-yl)piperazin-1-yl)methyl)-2-(2,6-dioxopiperidin-3-yl)isoindoline-1,3-dione]
- CK1a substrate protein remaining % (CK1α): B (80%< substrate protein remaining %≤ 100%)
- IKZF2 substrate protein remaining % (IKZF2): B (80%< substrate protein remaining %≤ 100%)
- IKZF3 substrate protein remaining % (IKZF3): B (80%< substrate protein remaining %≤ 100%)
- GSPT1 substrate protein remaining % (GSPT1): A (0% ≤ substrate protein remaining % ≤ 80%)
- IKZF 1 substrate protein remaining % (IKZF1): B (80%< substrate protein remaining %≤ 100%)
- Weel substrate protein remaining % (WEE1): B (80%< substrate protein remaining %≤ 100%)

Structure (SMILES): O=C1CCC(N2C(=O)c3ccc(CN4CCN(c5c(F)cncc5Cl)CC4)cc3C2=O)C(=O)N1 (stereo not drawn) [GT-06600, 5-((4-(3-chloro-5-fluoropyridin-4-yl)piperazin-1-yl)methyl)-2-(2,6-dioxopiperidin-3-yl)isoindoline-1,3-dione]
- CK1a substrate protein remaining % (CK1α): B (80%< substrate protein remaining %≤ 100%)
- IKZF2 substrate protein remaining % (IKZF2): B (80%< substrate protein remaining %≤ 100%)
- IKZF3 substrate protein remaining % (IKZF3): B (80%< substrate protein remaining %≤ 100%)
- GSPT1 substrate protein remaining % (GSPT1): A (0% ≤ substrate protein remaining % ≤ 80%)
- IKZF 1 substrate protein remaining % (IKZF1): B (80%< substrate protein remaining %≤ 100%)
- Weel substrate protein remaining % (WEE1): B (80%< substrate protein remaining %≤ 100%)

Structure (SMILES): O=C1CCC(N2C(=O)c3ccc(CN4CCC(c5nccc(Cl)c5Cl)CC4)cc3C2=O)C(=O)N1 (stereo not drawn) [GT-06607, 5-((4-(3,4-dichloropyridin-2-yl)piperidin-1-yl)methyl)-2-(2,6-dioxopiperidin-3-yl)isoindoline-1,3-dione]
- CK1a substrate protein remaining % (CK1α): B (80%< substrate protein remaining %≤ 100%)
- IKZF2 substrate protein remaining % (IKZF2): B (80%< substrate protein remaining %≤ 100%)
- IKZF3 substrate protein remaining % (IKZF3): B (80%< substrate protein remaining %≤ 100%)
- GSPT1 substrate protein remaining % (GSPT1): A (0% ≤ substrate protein remaining % ≤ 80%)
- IKZF 1 substrate protein remaining % (IKZF1): B (80%< substrate protein remaining %≤ 100%)
- Weel substrate protein remaining % (WEE1): B (80%< substrate protein remaining %≤ 100%)

Structure (SMILES): O=C1CCC(N2C(=O)c3ccc(CN4CCC(c5ccnc(F)c5F)CC4)cc3C2=O)C(=O)N1 (stereo not drawn) [GT-06613, 5-((4-(2,3-difluoropyridin-4-yl)piperidin-1-yl)methyl)-2-(2,6-dioxopiperidin-3-yl)isoindoline-1,3-dione]
- CK1a substrate protein remaining % (CK1α): B (80%< substrate protein remaining %≤ 100%)
- IKZF2 substrate protein remaining % (IKZF2): B (80%< substrate protein remaining %≤ 100%)
- IKZF3 substrate protein remaining % (IKZF3): B (80%< substrate protein remaining %≤ 100%)
- GSPT1 substrate protein remaining % (GSPT1): A (0% ≤ substrate protein remaining % ≤ 80%)
- IKZF 1 substrate protein remaining % (IKZF1): B (80%< substrate protein remaining %≤ 100%)
- Weel substrate protein remaining % (WEE1): B (80%< substrate protein remaining %≤ 100%)

Structure (SMILES): O=C1CCC(N2C(=O)c3ccc(CN4CCC(c5ccnc(Cl)c5Cl)CC4)cc3C2=O)C(=O)N1 (stereo not drawn) [GT-06615, 5-((4-(2,3-dichloropyridin-4-yl)piperidin-1-yl)methyl)-2-(2,6-dioxopiperidin-3-yl)isoindoline-1,3-dione]
- CK1a substrate protein remaining % (CK1α): A (0% ≤ substrate protein remaining % ≤ 80%)
- IKZF2 substrate protein remaining % (IKZF2): B (80%< substrate protein remaining %≤ 100%)
- IKZF3 substrate protein remaining % (IKZF3): A (0% ≤ substrate protein remaining % ≤ 80%)
- GSPT1 substrate protein remaining % (GSPT1): A (0% ≤ substrate protein remaining % ≤ 80%)
- IKZF 1 substrate protein remaining % (IKZF1): B (80%< substrate protein remaining %≤ 100%)
- Weel substrate protein remaining % (WEE1): A (0% ≤ substrate protein remaining % ≤ 80%)

Structure (SMILES): O=C1CCC(N2C(=O)c3ccc(CN4CCN(c5ccnc(Cl)c5)CC4)cc3C2=O)C(=O)N1 (stereo not drawn) [GT-06619, 5-((4-(2-chloropyridin-4-yl)piperazin-1-yl)methyl)-2-(2,6-dioxopiperidin-3-yl)isoindoline-1,3-dione]
- CK1a substrate protein remaining % (CK1α): B (80%< substrate protein remaining %≤ 100%)
- IKZF2 substrate protein remaining % (IKZF2): B (80%< substrate protein remaining %≤ 100%)
- IKZF3 substrate protein remaining % (IKZF3): A (0% ≤ substrate protein remaining % ≤ 80%)
- GSPT1 substrate protein remaining % (GSPT1): A (0% ≤ substrate protein remaining % ≤ 80%)
- IKZF 1 substrate protein remaining % (IKZF1): B (80%< substrate protein remaining %≤ 100%)
- Weel substrate protein remaining % (WEE1): B (80%< substrate protein remaining %≤ 100%)

Structure (SMILES): O=C1CCC(N2C(=O)c3ccc(CN4CCC(c5noc6ccccc56)CC4)cc3C2=O)C(=O)N1 (stereo not drawn) [GT-06627, 5-((4-(benzo[d]isoxazol-3-yl)piperidin-1-yl)methyl)-2-(2,6-dioxopiperidin-3-yl)isoindoline-1,3-dione]
- CK1a substrate protein remaining % (CK1α): B (80%< substrate protein remaining %≤ 100%)
- IKZF2 substrate protein remaining % (IKZF2): B (80%< substrate protein remaining %≤ 100%)
- IKZF3 substrate protein remaining % (IKZF3): B (80%< substrate protein remaining %≤ 100%)
- GSPT1 substrate protein remaining % (GSPT1): A (0% ≤ substrate protein remaining % ≤ 80%)
- IKZF 1 substrate protein remaining % (IKZF1): B (80%< substrate protein remaining %≤ 100%)
- Weel substrate protein remaining % (WEE1): B (80%< substrate protein remaining %≤ 100%)

Structure (SMILES): O=C1CCC(N2C(=O)c3ccc(CN4CCC(c5ccon5)CC4)cc3C2=O)C(=O)N1 (stereo not drawn) [GT-06628, 2-(2,6-dioxopiperidin-3-yl)-5-((4-(isoxazol-3-yl)piperidin-1-yl)methyl)isoindoline-1,3-dione]
- CK1a substrate protein remaining % (CK1α): B (80%< substrate protein remaining %≤ 100%)
- IKZF2 substrate protein remaining % (IKZF2): B (80%< substrate protein remaining %≤ 100%)
- IKZF3 substrate protein remaining % (IKZF3): B (80%< substrate protein remaining %≤ 100%)
- GSPT1 substrate protein remaining % (GSPT1): A (0% ≤ substrate protein remaining % ≤ 80%)
- IKZF 1 substrate protein remaining % (IKZF1): B (80%< substrate protein remaining %≤ 100%)
- Weel substrate protein remaining % (WEE1): B (80%< substrate protein remaining %≤ 100%)

Structure (SMILES): O=C1CCC(N2C(=O)c3ccc(CN4CCN(c5noc6cc(F)ccc56)CC4)cc3C2=O)C(=O)N1 (stereo not drawn) [GT-06629, 2-(2,6-dioxopiperidin-3-yl)-5-((4-(6-fluorobenzo[d]isoxazol-3-yl)piperazin-1-yl)methyl)isoindoline-1,3-dione]
- CK1a substrate protein remaining % (CK1α): A (0% ≤ substrate protein remaining % ≤ 80%)
- IKZF2 substrate protein remaining % (IKZF2): A (0% ≤ substrate protein remaining % ≤ 80%)
- IKZF3 substrate protein remaining % (IKZF3): B (80%< substrate protein remaining %≤ 100%)
- GSPT1 substrate protein remaining % (GSPT1): A (0% ≤ substrate protein remaining % ≤ 80%)
- IKZF 1 substrate protein remaining % (IKZF1): B (80%< substrate protein remaining %≤ 100%)
- Weel substrate protein remaining % (WEE1): A (0% ≤ substrate protein remaining % ≤ 80%)

Structure (SMILES): O=C1CCC(N2C(=O)c3ccc(CN4CCN(c5noc6ccncc56)CC4)cc3C2=O)C(=O)N1 (stereo not drawn) [GT-06630, 2-(2,6-dioxopiperidin-3-yl)-5-((4-(isoxazolo[4,5-c]pyridin-3-yl)piperazin-1-yl)methyl)isoindoline-1,3-dione]
- CK1a substrate protein remaining % (CK1α): A (0% ≤ substrate protein remaining % ≤ 80%)
- IKZF2 substrate protein remaining % (IKZF2): A (0% ≤ substrate protein remaining % ≤ 80%)
- IKZF3 substrate protein remaining % (IKZF3): B (80%< substrate protein remaining %≤ 100%)
- GSPT1 substrate protein remaining % (GSPT1): A (0% ≤ substrate protein remaining % ≤ 80%)
- IKZF 1 substrate protein remaining % (IKZF1): B (80%< substrate protein remaining %≤ 100%)
- Weel substrate protein remaining % (WEE1): A (0% ≤ substrate protein remaining % ≤ 80%)
